Measured values from ChEMBL document CHEMBL1201862, “PubChem BioAssay data set” (2004).
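Method: 48-hour compound exposure of cells in 96-well plates, five concentrations, linear interpolation of endpoints. Here, GI50 denotes the concentration required for 50% inhibition of growth.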 Activity calls are given as the source filed them. Cut-off read from the data, not from the text of the source: active = GI50 up to about 1.1 µM and inactive = higher.

Columns and labels:
Experiment in all cases: DTP human tumour cell line panel, 48 h
[1] = system: COLO 205
[2] = system: HT-29
[3] = system: SK-OV-3
[4] = system: UO-31
[5] = system: RPMI-8226
[6] = system: OVCAR-8
[7] = system: MCF7
[8] = system: SF-295
[9] = system: LOX IMVI
[10] = system: CAKI-1
[11] = system: OVCAR-5
[12] = system: IGROV-1
[13] = system: UACC-62
[14] = system: OVCAR-4
[15] = system: HL-60
[16] = system: SN12C
[17] = system: HOP-62
[18] = system: KM12
[19] = system: M14

Measured: GI50

OCC1OC(n2cnc3c2NC=NC[C@H]3O)C(O)C1O (stereo partly specified)
inactive: [1] > 450 µM | [2] > 450 µM | [3] 234 µM | [4] 282 µM | [5] 201 µM | [6] > 450 µM | [7] > 450 µM | [8] > 450 µM | [9] 170 µM | [10] 226 µM | [11] > 450 µM | [12] > 450 µM | [13] > 450 µM | [14] > 450 µM | [15] 86.7 µM | [16] 293 µM | [17] > 337 µM | [18] > 450 µM

CC1CC(C)(O)C2C3(C)CCCC2(COC3=O)C12CCC1(CCOC1=O)O2 (stereo unspecified)
inactive: [1] > 250 µM | [2] > 250 µM | [3] > 250 µM | [4] > 238 µM | [5] > 250 µM | [6] > 250 µM | [7] > 250 µM | [8] > 250 µM | [9] > 250 µM | [10] > 250 µM | [11] > 250 µM | [12] > 250 µM | [13] > 250 µM | [14] > 250 µM | [15] > 250 µM | [16] > 250 µM | [17] > 250 µM | [18] > 250 µM

O=C(NCCCl)O/N=C/c1cccnc1
inactive: [1] > 100 µM | [2] > 100 µM | [3] > 100 µM | [4] > 100 µM | [5] > 100 µM | [6] > 100 µM | [7] > 100 µM | [8] > 100 µM | [9] > 100 µM | [10] > 100 µM | [11] > 100 µM | [12] > 100 µM | [13] > 100 µM | [14] > 100 µM | [15] > 100 µM | [16] > 100 µM | [17] > 100 µM | [18] > 100 µM

N#Cc1c(-c2ccc([N+](=O)[O-])cc2)c(C#N)c(=O)n(NS(=O)(=O)c2ccccc2)c1O
inactive: [1] > 100 µM | [2] > 100 µM | [3] > 100 µM | [19] > 100 µM | [5] > 100 µM | [6] > 100 µM | [7] > 100 µM | [8] > 100 µM | [9] > 100 µM | [10] > 100 µM | [11] > 100 µM | [12] > 100 µM | [13] > 100 µM | [14] > 100 µM | [15] > 100 µM | [16] > 100 µM | [17] > 100 µM
